Reference: ChEMBL document CHEMBL1150142, “New onoceranoid triterpene constituents from Lansium domesticum” (J Nat Prod, 2002)
Active and inactive are the calls of the source. No cut-off for these calls is given here.

Assay: Inhibition of trypsin

SMILES | Activity
C=C1CC[C@H]2C(C)(C)[C@@H](O)CC[C@]2(C)[C@H]1CC[C@H]1C(C)=CC[C@H]2C(C)(C)C(=O)CC[C@]12C | inactive
C=C1CC[C@H]2C(C)(C)C(=O)CC[C@]2(C)[C@H]1CC[C@H]1C(C)=CC[C@H]2C(C)(C)[C@@H](O)CC[C@]12C | inactive
C=C(C)[C@@H]1CC=C(C)[C@H](CC[C@H]2C(=C)CC[C@H]3C(C)(C)C(=O)CC[C@]23C)[C@@]1(C)CCC(=O)O | inactive
C=C(C)[C@@H]1CC=C(C)[C@H](CC[C@H]2C(=C)CC[C@H]3C(C)(C)C(=O)CC[C@]23C)[C@@]1(C)CCC(=O)OC | inactive
C=C(C)[C@@H]1CCC(=C)[C@H](CC[C@H]2C(C)=CC[C@@H](C(=C)C)[C@]2(C)CCC(=O)O)[C@@]1(C)CCC(=O)O | inactive
